Measured values published in PubChem BioAssay AID1963976 (Molecular Pharmacology Branch, DTP, NCI, 2024).
Values joined by “and” are separate entries in the source; they are usually repeats but may differ in a detail not shown here. Identical values can stand only once.

System: 435261-313-R-J1-PDC tumor spheroid viability
Assay: Anticancer human tumor 435261-313-R-J1-PDC patient-derived colon adenocarcinoma cell line growth inhibition [PI3K]
Settings: spheroids with HUVEC and MSC; for viability, T/C: stronger effect = lower value
Summary of the method: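 Spheroid viability read-out. Co-cultures contained the tumor line plus HUVEC and human MSCs. Each agent was paired with a PI3K inhibitor (inavolisib, alpelisib, duvelisib, copanlisib) across half-log dilutions starting at clinical Cmax, or at 10 microM when Cmax was unknown.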

[1] = curve of first compound, second compound 0.0316 µM
[2] = curve of first compound, second compound 0.1 µM
[3] = curve of first compound, second compound 0.316 µM
[4] = curve of first compound, second compound 1 µM
[5] = curve of first compound, second compound 3.16 µM
[6] = curve of first compound, second compound 10 µM
[7] = second compound 0.0316 µM, first compound 0.0316 µM
[8] = second compound 0.0316 µM, first compound 0.1 µM
[9] = second compound 0.0316 µM, first compound 0.316 µM
[10] = second compound 0.0316 µM, first compound 1 µM
[11] = second compound 0.0316 µM, first compound 3.16 µM
[12] = second compound 0.0316 µM, first compound 10 µM
[13] = second compound 0.1 µM, first compound 0.0316 µM
[14] = second compound 0.1 µM, first compound 0.1 µM
[15] = second compound 0.1 µM, first compound 0.316 µM
[16] = second compound 0.1 µM, first compound 1 µM
[17] = second compound 0.1 µM, first compound 3.16 µM
[18] = second compound 0.1 µM, first compound 10 µM
[19] = second compound 0.316 µM, first compound 0.0316 µM
[20] = second compound 0.316 µM, first compound 0.1 µM
[21] = second compound 0.316 µM, first compound 0.316 µM
[22] = second compound 0.316 µM, first compound 1 µM
[23] = second compound 0.316 µM, first compound 3.16 µM
[24] = second compound 0.316 µM, first compound 10 µM
[25] = second compound 1 µM, first compound 0.0316 µM
[26] = second compound 1 µM, first compound 0.1 µM
[27] = second compound 1 µM, first compound 0.316 µM
[28] = second compound 1 µM, first compound 1 µM
[29] = second compound 1 µM, first compound 3.16 µM
[30] = second compound 1 µM, first compound 10 µM
[31] = second compound 3.16 µM, first compound 0.0316 µM
[32] = second compound 3.16 µM, first compound 0.1 µM
[33] = second compound 3.16 µM, first compound 0.316 µM
[34] = second compound 3.16 µM, first compound 1 µM
[35] = second compound 3.16 µM, first compound 3.16 µM
[36] = second compound 3.16 µM, first compound 10 µM
[37] = second compound 10 µM, first compound 0.0316 µM
[38] = second compound 10 µM, first compound 0.1 µM
[39] = second compound 10 µM, first compound 0.316 µM
[40] = second compound 10 µM, first compound 1 µM
[41] = second compound 10 µM, first compound 3.16 µM
[42] = second compound 10 µM, first compound 10 µM
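Further: spheroids exposed to compounds for 7 days.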

In the case of `C#Cc1c(F)ccc2cc(O)cc(-c3ncc4c(N5CC6CCC(C5)N6)nc(OCC56CCCN5CC(F)C6)nc4c3F)c12` (stereo unspecified) + CC(Nc1ncnc2nc[nH]c12)c1cc2cccc(Cl)c2c(=O)n1-c1ccccc1, the IC50 [1] is reported as 6.85 µM, the IC50 [2] is reported as over 10 µM and the IC50 [3] is reported as 7.21 µM. For the same molecule, the IC50 [4] was 5.49 µM, the IC50 [5] was 4.51 µM and the IC50 [6] was 0.319 µM. It also gave a viability, T/C [7] of 78.7%, a viability, T/C [8] of 100% and a viability, T/C [9] of 98.3%. The viability, T/C [10] was 89.3%, the viability, T/C [11] was 81.9% and the viability, T/C [12] was 34.5%. It also gave a viability, T/C [13] of 97.8%, a viability, T/C [14] of 109% and a viability, T/C [15] of 72.2%. The viability, T/C [16] was 82%, the viability, T/C [17] was 68.2% and the viability, T/C [18] was 56%. The viability, T/C [19] was 89%, the viability, T/C [20] was 85.3% and the viability, T/C [21] was 79.8%. It also gave a viability, T/C [22] of 105%, a viability, T/C [23] of 103% and a viability, T/C [24] of 33.2%. For the same molecule, the viability, T/C [25] was 94.9%, the viability, T/C [26] was 70.4% and the viability, T/C [27] was 82.3%. The viability, T/C [28] was 103%, the viability, T/C [29] was 67% and the viability, T/C [30] was 31.4%. The viability, T/C [31] was 62%, the viability, T/C [32] was 66.2% and the viability, T/C [33] was 43.3%. It also gave a viability, T/C [34] of 90.6%, a viability, T/C [35] of 50.1% and a viability, T/C [36] of 32.7%. For the same molecule, the viability, T/C [37] was 56.5%, the viability, T/C [38] was 46.9% and the viability, T/C [39] was 52.3%. For the same molecule, the viability, T/C [40] was 34.9%, the viability, T/C [41] was 18.8% and the viability, T/C [42] was 13.7%.

`CC(=O)c1c(C)c2cnc(Nc3ccc(N4CCNCC4)cn3)nc2n(C2CCCC2)c1=O` was tested, and the viability, T/C (compound 0.000316 µM) was 69.4% and 92% and 91.1%, the viability, T/C (compound 0.001 µM) was 92.5% and 97.7% and 88.2% and the viability, T/C (compound 0.00316 µM) was 86.3% and 105% and 87%. The viability, T/C (compound 0.01 µM) was 105% and 93.1% and 75.4%, the viability, T/C (compound 0.0316 µM) was 99.9% and 90.4% and 103% and the viability, T/C (compound 0.1 µM) was 68.8% and 77.6% and 68.9%. It also gave an IC50 (curve of compound) of over 0.1 µM.

Molecule `C=CC(=O)N1CCN(c2nc(=O)n(-c3c(C)ccnc3C(C)C)c3nc(-c4c(O)cccc4F)c(F)cc23)C(C)C1` (stereo unspecified) + CC(Nc1ncnc2nc[nH]c12)c1cc2cccc(Cl)c2c(=O)n1-c1ccccc1 has an IC50 [1] of over 10 µM, an IC50 [2] of over 10 µM and an IC50 [3] of over 10 µM. For the same molecule, the IC50 [4] was over 10 µM, the IC50 [5] was over 10 µM and the IC50 [6] was over 10 µM. It also gave a viability, T/C [7] of 67.3%, a viability, T/C [8] of 84.8% and a viability, T/C [9] of 103%. It also gave a viability, T/C [10] of 117%, a viability, T/C [11] of 116% and a viability, T/C [12] of 103%. For the same molecule, the viability, T/C [13] was 78.4%, the viability, T/C [14] was 79.9% and the viability, T/C [15] was 103%. The viability, T/C [16] was 84.3%, the viability, T/C [17] was 109% and the viability, T/C [18] was 103%. The viability, T/C [19] was 92%, the viability, T/C [20] was 95% and the viability, T/C [21] was 85.4%. It also gave a viability, T/C [22] of 94.1%, a viability, T/C [23] of 122% and a viability, T/C [24] of 108%. The viability, T/C [25] was 76.3%, the viability, T/C [26] was 77% and the viability, T/C [27] was 102%. For the same molecule, the viability, T/C [28] was 91.9%, the viability, T/C [29] was 130% and the viability, T/C [30] was 109%. It also gave a viability, T/C [31] of 53.7%, a viability, T/C [32] of 68.8% and a viability, T/C [33] of 89.2%. For the same molecule, the viability, T/C [34] was 106%, the viability, T/C [35] was 87.9% and the viability, T/C [36] was 79.5%. It also gave a viability, T/C [37] of 49.3%, a viability, T/C [38] of 49.6% and a viability, T/C [39] of 54.6%. For the same molecule, the viability, T/C [40] was 55.1%, the viability, T/C [41] was 74.9% and the viability, T/C [42] was 66.4%.
